Measurements published in US9145445B2 (priority 2003, dated 2015).
Values joined by “and” are separate entries in the source; they are usually repeats but may differ in a detail not shown here. Identical values can stand only once. Like-named read-outs stand apart in the source and are kept apart here. Where a SMILES comes first, the peptide text is derived from it.

How the values were obtained:
[1] = test system: PT immobilized on a CM5 chip; format: binding, Bordetella pertussis
PT [2] = conditions: phage display, Bogdan, et al.; cited from earlier work
[3] = test system: PT immobilized on Streptavidin beads
purified Pertussis Toxin = experiment: binding of purified PT to peptides immobilized on streptavidin sepharose; parameters: species or system Bordetella pertussis; conditions: ~200 pmol peptide on streptavidin sepharose, 100 pmol purified PT, gel, silver staining
PT [4] = experiment: estimation of peptides binding capacity (fraction of binding active peptide); parameters: species or system Bordetella pertussis; conditions: 20 pmol sepharose-immobilized peptide, 100 pmol PT (500 nM); 1:1 binding assumed
Method: For estimation of peptides binding capacity 20 pmol of sepharose-immobilized peptides were incubated with an excess of 100 pmol PT in a volume of 200 μl HEPES buffer (corresponds to 500 nM PT). After washing, the fraction of peptide-streptavidin sepharose bound PT was quantified by gel analysis. This allows directly to calculate the fraction of binding active peptide under the applied conditions (assuming the PT/peptide binding ratio is 1:1). Under the assumption that a concentration of 500 nM PT is high enough to reach Bmax for all peptides. The values presented therein are estimations for the expectable binding capacities of the peptides. An exact evaluation of binding capacity (Bmax) and dissociation constant (KD) of the most suitable binder may also be performed.

PT [5] = experiment: stability of PT/peptide complexes, BIAcore 2000; format: binding, Bordetella pertussis; conditions: for pH range stability of the complex (stable): PT/peptide complex, instable at pH 2.5 or 10.5
Method: The stability of PT/peptide complexes were investigated using the BIAcore 2000 instrument under different pH and salt conditions that were shown before not to interfere with the PT hexamer stability. 500-1000 RU of the synthetic peptides were immobilized on BIAcore streptavidin chips. To allow binding of PT to the immobilized peptides, 20 nM purified PT in HEPES buffer was injected for 1 minute. After equilibration with HBS/EP running buffer (0.01 M HEPES pH 7.4, 0.15 M NaCl 3 mM EDTA 0.005% polysorbate 20 (v/v)) the PT/peptide complexes were washed by injection of • (a) 100 mM carbonate buffer at pH 10.5 and 9.5 • (b) 10 mM acetate buffer at pH 5.5, 5.0, 4.5, and 4.0 • (c) 10 mM glycine buffer at pH 3.0 and 2.5 • (d) 0.5, 1.0, 1.5, 2.0 M NaCl in 10 mM acetate buffer, pH 6.0, • (e) 0.5, 1.0, 1.5, 2.0 M NaCl in 50 mM Tris/HCl buffer, pH 8.5, • (f) 0.5, 1.0, 1.5, 2.0 M KCl in 10 mM acetate buffer, pH 6.0, • (g) 0.5, 1.0, 1.5, 2.0 M KCl in 50 mM Tris/HCl buffer, pH 8.5, • (h) 0.5, 1.0, 1.5, 2.0 M NaCl in 10 mM acetate buffer, pH 6.0, • (i) 0.5, 1.0, 1.5, 2.0 M NaCl in 50 mM Tris/HCl buffer, pH 8.5.
After the end of each buffer injection, the chip was equilibrated with HBS/EP running buffer. The loss of PT hexamer on the chip under the applied buffer conditions (difference of measured RU signal before and after buffer injection) reflects the PT/peptide complex stability.

PT [6] = format: binding, Bordetella pertussis; conditions: input of 400 pmol peptide to 1 μl streptavidin sepharose
PT [7] = experiment: reutilization of peptide sepharose for repeated PT binding and elution; parameters: species or system Bordetella pertussis; conditions: 4 cycles of PT binding, carbonate pH 10.5 elution, 10 mM HCl regeneration
Method: For binding of PT each peptide streptavidin sepharose was incubated with 400 μl sample B (adjusted to pH 7.0-7.5 by addition of HC1) for 1 hour at RT and washed 4 times with 50 mM Tris/HC1, pH 7.5 (each 200 μl). PT was eluted by 4 consecutive elutions with 100 mM Carbonate buffer at pH 10.5 (each 20 μl). Subsequently the column matrices were regenerated by three washes with 10 mM HC1 (l×20 μl, 2×100 μl) and afterwards neutralized by two washes with 200 μl 50 mM Tris/HC1, pH 7.5. This binding, elution and regeneration procedure was applied to the peptide sepharose for three additional times. […] (FIG. 25). • 5. Large-scale FPLC-Purification of PT

PT [8] = format: binding, Bordetella pertussis
[9] = test system: chip immobilized biotinylated PT; conditions: BIAcore streptavidin chip
Description: The quality of the biotinylation reaction was controlled by analysis of the interaction of biotinylated PT with a BIAcore streptavidin chip using BIAcore instrument (BIAcore 2000).

Chain of purified Pertussis Toxin (P04977 35-269 limits assumed): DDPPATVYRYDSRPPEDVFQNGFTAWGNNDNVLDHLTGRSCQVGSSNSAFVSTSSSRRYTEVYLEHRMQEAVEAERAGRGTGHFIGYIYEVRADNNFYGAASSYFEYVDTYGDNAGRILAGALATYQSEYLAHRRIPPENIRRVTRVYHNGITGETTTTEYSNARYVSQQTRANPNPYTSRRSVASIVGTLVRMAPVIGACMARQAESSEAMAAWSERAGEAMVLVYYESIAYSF
Chain of purified Pertussis Toxin (P04978 28-226 limits assumed, further chain): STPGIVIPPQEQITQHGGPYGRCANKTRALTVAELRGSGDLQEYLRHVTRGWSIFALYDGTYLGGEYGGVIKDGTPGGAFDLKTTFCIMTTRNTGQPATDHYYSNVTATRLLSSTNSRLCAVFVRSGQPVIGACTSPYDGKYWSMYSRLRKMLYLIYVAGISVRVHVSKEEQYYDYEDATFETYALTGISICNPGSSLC
Chain of purified Pertussis Toxin (P04979 29-227 limits assumed, further chain): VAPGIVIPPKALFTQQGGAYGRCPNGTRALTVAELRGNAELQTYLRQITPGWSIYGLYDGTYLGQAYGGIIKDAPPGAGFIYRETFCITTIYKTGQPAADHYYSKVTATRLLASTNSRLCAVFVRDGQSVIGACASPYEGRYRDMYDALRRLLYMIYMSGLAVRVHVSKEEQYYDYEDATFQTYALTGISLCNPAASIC
Chain of purified Pertussis Toxin (P0A3R5 43-152 limits assumed, further chain): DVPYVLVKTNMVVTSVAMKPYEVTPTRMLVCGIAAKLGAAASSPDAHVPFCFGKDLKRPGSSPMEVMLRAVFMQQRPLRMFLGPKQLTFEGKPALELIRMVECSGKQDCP
Chain of purified Pertussis Toxin (P04981 35-133 limits assumed, further chain): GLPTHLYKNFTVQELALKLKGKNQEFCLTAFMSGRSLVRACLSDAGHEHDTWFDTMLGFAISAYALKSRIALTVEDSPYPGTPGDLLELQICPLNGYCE
Chain of PT immobilized on Streptavidin beads (P04977 35-269 limits assumed): as the sequence (P04977 35-269 limits assumed) above
Chain of PT immobilized on Streptavidin beads (P04978 28-226 limits assumed, further chain): as the sequence (P04978 28-226 limits assumed, further chain) above
Chain of PT immobilized on Streptavidin beads (P04979 29-227 limits assumed, further chain): as the sequence (P04979 29-227 limits assumed, further chain) above
Chain of PT immobilized on Streptavidin beads (P0A3R5 43-152 limits assumed, further chain): as the sequence (P0A3R5 43-152 limits assumed, further chain) above
Chain of PT immobilized on Streptavidin beads (P04981 35-133 limits assumed, further chain): as the sequence (P04981 35-133 limits assumed, further chain) above
Chain of PT (P04977 35-269 limits assumed): as the sequence (P04977 35-269 limits assumed) above
Chain of PT (P04978 28-226 limits assumed, further chain): as the sequence (P04978 28-226 limits assumed, further chain) above
Chain of PT (P04979 29-227 limits assumed, further chain): as the sequence (P04979 29-227 limits assumed, further chain) above
Chain of PT (P0A3R5 43-152 limits assumed, further chain): as the sequence (P0A3R5 43-152 limits assumed, further chain) above
Chain of PT (P04981 35-133 limits assumed, further chain): as the sequence (P04981 35-133 limits assumed, further chain) above
Chain of chip immobilized biotinylated PT (P04977 35-269 limits assumed): as the sequence (P04977 35-269 limits assumed) above
Chain of chip immobilized biotinylated PT (P04978 28-226 limits assumed, further chain): as the sequence (P04978 28-226 limits assumed, further chain) above
Chain of chip immobilized biotinylated PT (P04979 29-227 limits assumed, further chain): as the sequence (P04979 29-227 limits assumed, further chain) above
Chain of chip immobilized biotinylated PT (P0A3R5 43-152 limits assumed, further chain): as the sequence (P0A3R5 43-152 limits assumed, further chain) above
Chain of chip immobilized biotinylated PT (P04981 35-133 limits assumed, further chain): as the sequence (P04981 35-133 limits assumed, further chain) above
Chain of PT immobilized on a CM5 chip (P04977 35-269 limits assumed): as the sequence (P04977 35-269 limits assumed) above
Chain of PT immobilized on a CM5 chip (P04978 28-226 limits assumed, further chain): as the sequence (P04978 28-226 limits assumed, further chain) above
Chain of PT immobilized on a CM5 chip (P04979 29-227 limits assumed, further chain): as the sequence (P04979 29-227 limits assumed, further chain) above
Chain of PT immobilized on a CM5 chip (P0A3R5 43-152 limits assumed, further chain): as the sequence (P0A3R5 43-152 limits assumed, further chain) above
Chain of PT immobilized on a CM5 chip (P04981 35-133 limits assumed, further chain): as the sequence (P04981 35-133 limits assumed, further chain) above

Q: Which “Association rate constant kon” value [1] does the source give for `CC[C@H](C)[C@H](NC(=O)[C@H](CO)NC(=O)[C@H](CC(C)C)NC(=O)[C@H](CCCNC(=N)N)NC(=O)[C@H](CO)NC(=O)[C@H](CCCNC(=N)N)NC(=O)[C@H](Cc1c[nH]cn1)NC(=O)[C@@H]1CCCN1C(=O)[C@H](CCCNC(=N)N)NC(=O)[C@H](CC(=O)O)NC(=O)[C@H](Cc1c[nH]c2ccccc12)NC(=O)CNC(=O)[C@@H](NC(=O)[C@H](CC(=O)O)NC(=O)[C@H](Cc1ccc(O)cc1)NC(=O)[C@H](Cc1c[nH]c2ccccc12)NC(=O)[C@@H](NC(=O)[C@H](CCC(=O)O)NC(=O)[C@H](CC(N)=O)NC(=O)[C@H](CC(C)C)NC(=O)[C@@H]1CCCN1C(=O)[C@@H](NC(=O)[C@@H](NC(=O)[C@H](CC(N)=O)NC(=O)[C@H](CO)NC(=O)[C@H](CCCNC(=N)N)NC(=O)COCCOCCNC(=O)CCCC[C@@H]1SC[C@@H]2NC(=O)N[C@@H]21)C(C)C)[C@@H](C)CC)C(C)C)[C@@H](C)O)C(=O)N[C@@H](CC(=O)O)C(=O)N[C@@H](CC(=O)O)C(=O)N[C@@H](CC(=O)O)C(=O)N[C@@H](C)C(=O)O` [pp26 9n] (HELM PEPTIDE1{[O=C1N[C@H]2[C@H](CS[C@H]2CCCCC(=O)[*:2])N1].[O=C(COCCOCCN[*:1])[*:2]].R.S.N.V.I.P.L.N.E.V.W.Y.D.T.G.W.D.R.P.H.R.S.R.L.S.I.D.D.D.A}$$$$V2.0) here?
A: 130000 M⁻¹ s⁻¹

Q: And the “Dissociation rate constant koff” value [1]?
A: 10^−3 s^−1

Q: For DGSFSGF [3G2], which PT-binding capacity (PT [2]) is on record?
A: PT-binding capacity

Q: For “MGRGSHHHHHHARSNVIPLNEVWYDTGWDRPHRSRLSIDDDANAPKASAI [PP26 variant 9]”, which “target binding to PT in the presence of AP process fluids” value (“target binding to PT in the presence” for short) [3] is on record?
A: not reduced

Q: For “MGRGSHHHHHHARSSHCRHRNCHTITRGNMRIETPNNIRKDANAPKASAI [PP26 variant 5]”, which “target binding to PT in the presence” value [3] is on record?
A: not reduced

Q: With “MGRGSHHHHHHARSTMNTNRMDIQRLMTNHVKRDSSPGSIDANAPKASAI [PP26 variant 6]” as the molecule, how does the “target binding to PT in the presence” value [3] read?
A: not reduced

Q: Which “target binding to PT in the presence” value [3] does the source give for “MHHHHHHSGSSSGSGCVKKDELCARWDLVCCEPLECIYTSELYATCGSGSSGSS [gurmarin variant 9]” here?
A: not influenced

Q: With “MHHHHHHSGSSSGSGCVKKDELCELAVDECCEPLECFQMGHGFKRCGSGSSGSS [gurmarin variant 10]” as the molecule, how does the “target binding to PT in the presence” value [3] read?
A: not influenced

Q: For “MHHHHHHSGSSSGSGCVKKDELCELAVDECCEPLECTKGDLGFRKCGSGSSGSS [gurmarin variant 19]”, which “target binding to PT in the presence” value [3] is on record?
A: not influenced

Q: For NGSFSGC [3G8], which PT-binding capacity (PT [2]) is on record?
A: PT-binding capacity

Q: Which PT-binding capacity (PT [2]) does the source give for NGSFSGF [3G5] here?
A: PT-binding capacity

Q: With Pertussis toxin [PT] as the molecule, how does the “pH range over which Pertussis toxin hexamer is stable” value (BIAcore, buffers pH 2-10.5) read?
A: 2.5-10.5 pH

Q: And the “PT hexamer stability (%)” value (pH 2)?
A: 93%

Q: And the “PT hexamer stability (%)” value (pH 2.5)?
A: 98%

Q: And the “PT hexamer stability (%)” value (pH 3)?
A: 100%

Q: And the “PT hexamer stability (%)” value (pH 4)?
A: 100%

Q: And the “PT hexamer stability (%)” value (pH 4.5)?
A: 100%

Q: And the “PT hexamer stability (%)” value (pH 5)?
A: 100%

Q: And the “PT hexamer stability (%)” value (pH 5.5)?
A: 100%

Q: And the “PT hexamer stability (%)” value (pH 8.5)?
A: 100%

Q: What about the “PT hexamer stability (%)” value (pH 9.6) of the same molecule?
A: 98%

Q: And the “PT hexamer stability (%)” value (pH 10.5)?
A: 95%

Q: Which “binding to purified PT” value (purified Pertussis Toxin) does the source give for “RSSHCRHRNCHTITRGNMRIETPNNIRKDA [pp26 5n]” here?
A: clear binding

Q: What about the “Fraction of binding active peptide” value (PT [4]) of the same molecule?
A: > 5%

Q: For “RSSHCRHRNCHTITRGNMRIETPNNIRKDAK [pp26 5c]”, which “binding to purified PT” value (purified Pertussis Toxin) is on record?
A: clear binding

Q: Which results are given for “RSWRDTRKLHMRHYFPLAIDSYWDHTLRDA [pp26 15n]”?
A: binding to purified PT (purified Pertussis Toxin): clear binding; Fraction of binding active peptide (PT [4]): >12.5%; pH range stability of the complex (stable) (PT [5]): 3-9 pH; KCl stability of the complex (stable) (PT [5]; pH 6): 2 M; MgCl2 stability of the complex (stable) (PT [5]; pH 6): to 2M; NaCl stability of the complex (stable) (PT [5]; pH 6): 2 M; KCl stability of the complex (stable) (PT [5]; pH 8.5): 2 M; MgCl2 stability of the complex: complete elution (PT [5]; pH 8.5): not; NaCl stability of the complex (stable) (PT [5]; pH 8.5): 2 M; MgCl2 stability of the complex: Elution / destabilized (PT [5]; pH 8.5 (50 mM Tris/HCl)): Elution ≧1.5, M

Q: What does the source list for “SGCVKKDELCARWDLVCCEPLECIYTSELYATCG [gurmarin 9n]”?
A: binding to purified PT (purified Pertussis Toxin): clear binding; Fraction of binding active peptide (PT [4]): >12.5%; NaCl in buffer that interferes with PT/peptide complex stability (PT [5]): 2.5 M; pH range stability of the complex (stable) (PT [5]): 3-9 pH; KCl stability of the complex (stable) (PT [5]; pH 8.5): strong sensitive to salt; NaCl stability of the complex (stable) (PT [5]; pH 8.5): strong sensitive to salt

Q: With “SGCVKKDELCELAIDECCEPLECTKGDLGFRKCG [gurmarin 19n]” as the molecule, how does the “binding to purified PT” value (purified Pertussis Toxin) read?
A: clear binding

Q: Which results are given for “SGCVKKDELCELAVDECCEPLECFQMGHGFKRCG [gurmarin 10n]”?
A: binding to purified PT (purified Pertussis Toxin): clear binding; Fraction of binding active peptide (PT [4]): > 5%

Q: With “SGCVKKDELCSQSVPMCCEPLECKWFNENYGICGS [gurmarin 15n]” as the molecule, how does the “binding to purified PT” value (purified Pertussis Toxin) read?
A: clear binding

Q: And the “pH range stability of the complex (stable)” value (PT [5])?
A: 3-9 pH

Q: What about the “KCl stability of the complex (stable)” value (PT [5]; pH 6) of the same molecule?
A: sensitive to salt

Q: And the “MgCl2 stability of the complex: Elution” value (PT [5]; pH 6)?
A: Elution ≧1M,

Q: What about the “MgCl2 stability of the complex: complete elution” value (PT [5]; pH 6) of the same molecule?
A: elution ≧2M

Q: And the “NaCl stability of the complex (stable)” value (PT [5]; pH 6)?
A: sensitive to salt

Q: What about the “KCl stability of the complex (stable)” value (PT [5]; pH 8.5) of the same molecule?
A: sensitive to salt

Q: And the “MgCl2 stability of the complex: complete elution” value (PT [5]; pH 8.5)?
A: elution ≧2M

Q: And the “NaCl stability of the complex (stable)” value (PT [5]; pH 8.5)?
A: sensitive to salt

Q: What about the “Amount of elutable peptide (effectively bound fraction of peptide)” value (PT [6]) of the same molecule?
A: 50 pmol

Q: What about the “reusability of peptide loaded sepharose” value (PT [7]) of the same molecule?
A: may be re-utilized

Q: With asialofetuin as the molecule, how does the “Amount of PT bound” value (PT [8]) read?
A: ~8 pmol and ~16 pmol

Q: What about the “binding signal to immobilized PT” value [9] of the same molecule?
A: ~400 RU

Q: What about the “unspecific binding to the control cell” value [9] of the same molecule?
A: ~100 RU
